In patent US11459312B2, “Sulphur substituted 3-oxo-2,3-dihydropyridazine-4-carboxamides” (Bayer Aktiengesellschaft, priority 2017, dated 2022):

Experiments:
AHR [1] = target: T1, AHR (Homo sapiens, UniProt P35869); assay: In vitro assay 3: AHR-regulated CYP1A1 expression in human cell line (U937, quantitative PCR); format: cell-based; details: human monocytic U937 cells, CYP1A1 expression induced with 200 μM KA, 6 hours, qPCR; read-out: Assay 3: Hum CYP1A1 Antagonism IC50
T1 sequence (P35869 11-848): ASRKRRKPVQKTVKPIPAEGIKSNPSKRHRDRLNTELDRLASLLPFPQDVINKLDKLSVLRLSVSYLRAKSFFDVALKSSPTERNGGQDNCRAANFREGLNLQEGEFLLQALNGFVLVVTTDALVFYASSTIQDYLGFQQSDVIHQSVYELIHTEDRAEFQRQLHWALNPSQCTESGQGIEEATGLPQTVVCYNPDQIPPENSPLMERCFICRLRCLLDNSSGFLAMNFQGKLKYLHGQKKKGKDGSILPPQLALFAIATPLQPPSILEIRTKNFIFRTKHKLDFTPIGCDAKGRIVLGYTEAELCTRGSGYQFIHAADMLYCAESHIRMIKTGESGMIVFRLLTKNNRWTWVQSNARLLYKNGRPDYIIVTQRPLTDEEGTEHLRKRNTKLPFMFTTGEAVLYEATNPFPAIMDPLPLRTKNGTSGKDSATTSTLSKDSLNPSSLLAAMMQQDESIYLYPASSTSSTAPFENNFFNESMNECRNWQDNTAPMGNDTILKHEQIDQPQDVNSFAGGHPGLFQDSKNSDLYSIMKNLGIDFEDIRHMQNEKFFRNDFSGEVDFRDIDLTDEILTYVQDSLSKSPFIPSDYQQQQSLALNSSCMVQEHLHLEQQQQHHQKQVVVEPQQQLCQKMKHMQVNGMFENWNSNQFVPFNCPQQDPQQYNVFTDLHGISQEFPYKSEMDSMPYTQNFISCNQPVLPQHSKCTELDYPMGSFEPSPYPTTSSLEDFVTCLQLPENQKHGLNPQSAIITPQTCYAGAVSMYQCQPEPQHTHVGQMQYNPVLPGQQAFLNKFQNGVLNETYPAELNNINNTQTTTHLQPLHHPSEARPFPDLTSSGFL
Procedure: In Vitro Assay 3: AHR-Regulated CYP1A1 Expression in Human Cell Line
To assess the AHR inhibitory activity of the substances described in this application, the ability thereof to antagonize ligand-induced AHR gene regulation in a dose-dependent manner was quantified. For this purpose, quantitative PCR analysis was used to determine expression of the AHR-regulated gene CYP1A1 in a human monocytic U937 cell line upon stimulation with 200 μM KA in the presence and absence of AHR inhibitor. U937 cells were sown at a concentration of 2×10^5 cells/well in 100 μl of growth medium (RPMI 1640, 20% FCS) in 96-well microtitre plates. CYP1A1 expression was induced with 200 μM KA (positive control) in the presence or absence of the substances for 6 hours. Human U937 cells were typically incubated with eight different concentrations of the substances (1 nM, 3 nM, 10 nM, 30 nM, 100 nM, 300 nM, 1 μM and 3 μM) and analyzed in duplicate on the same microtitre plate. After stimulation, cells were lysed with Nucleic Acid Lysis Solution (#4305895, Applied Biosystems) and RNA was isolated using the 6100 Nucleic Acid Preparation Station (Applied Biosystems) and reverse-transcribed to cDNA using SuperScript VILO cDNA synthesis kit (#11754-250, Invitrogen). Unstimulated cells were used as the negative control. Taqman probes for human CYP1A1 (Hs01054797_g1) and human HPRT (Hs02800695_m1) were used to analyze fold expression of CYP1A1 of HPRT. Quantitation was performed on a Taqman SDS7900HT.

AHR [2] = target: T1, AHR; assay: In vitro assay 1: AHR-luc transactivation assay, antagonism in human cell line (U87 glioblastoma cells, kynurenic acid prestimulated); format: cell-based; design: U87 glioblastoma cells (ATCC) endogenously expressing AHR; host or cells: U87 glioblastoma cells, stably transfected with DRE-firefly luciferase and renilla reporter constructs only; details: firefly luciferase DRE reporter, 150 μM kynurenic acid, 20 hours, read-out: Assay 1: AHR-luc Hum Antagonism IC50
Procedure: Transactivation Assay in Human Cell Line (In Vitro Assays 1 and 2)
Transactivation assays were carried out in U87 glioblastoma cells (ATCC) endogenously expressing AHR. In addition the cells were stably transfected with an AHR inducible firefly luciferase reporter gene construct that carried AHR-binding sites (DRE) in its promoter and a renilla reporter gene construct with constitutively active promoter. Kynurenic acid is an endogenous AHR activating ligand and was used to prestimulate test cells prior to testing the antagonistic properties of compounds.
In Vitro Assay 1: Antagonism in Human Cell Line
Cells in medium (tryptophan free RPMI, 1% FCS, 2 mM Glutamine) supplemented with 150 μM kynurenic acid were grown for 20 hours in absence (negative control) or presence of increasing concentrations of test compounds (typical dilutions: […], 0.25 nmol/L, 0.89 nmol/L; 3.1 nmol/L, 11 nmol/L, 38 nmol/L, 130 nmol/L, 470 nmol/L, 1.6 μmol/L, 5.7 μmol/L and 20 μmol/L in duplicates). As positive inhibition control cells supplemented with 150 μM kynurenic acid were incubated in presence of 5 μM Staurosporin. Normalization was done by positive and negative controls.
Firefly luciferase and Renilla activity was determined by the DualGlo Luciferase Assay System (Promega, #2920). Renilla activity was used to assess toxic effects of compounds.

Structure (SMILES) | IC50 (AHR [1]) [µM] | IC50 (AHR [2]) [µM]
O=C(N[C@H]1CS(=O)(=O)C[C@H]1O)c1cc(-c2ccc(Cl)cc2)nn(-c2cccc(F)c2)c1=O (racemic) [Example 55, 6-(4-Chlorophenyl)-2-(3-fluorophenyl)-N-[(cis)-4-hydroxy-1,1-dioxidotetrahydrothiophen-3-yl]-3-oxo-2,3-dihydropyridazine-4-carboxamide] | 0.027 | 0.0265
O=C(N[C@@H]1CS(=O)(=O)C[C@@H]1O)c1cc(-c2ccc(C(F)(F)F)cc2)nn(-c2cccc(F)c2)c1=O (relative stereo) [Example 13, 2-(3-fluorophenyl)-N-[(cis)-4-hydroxy-1,1-dioxidotetrahydro-thiophen-3-yl]-3-oxo-6-[4-(trifluoromethyl)phenyl]-2,3-dihydropyridazine-4-carboxamide] | 0.0186 | 0.00565
O=C(N[C@@H]1CS(=O)(=O)C[C@@H]1O)c1cc(-c2ccc(C(F)(F)F)cc2)nn(-c2cccc(F)c2)c1=O (single isomer, unassigned) [Example 15, (−)-2-(3-fluorophenyl)-N-[(cis)-4-hydroxy-1,1-dioxidotetrahydro-thiophen-3-yl]-3-oxo-6-[4-(trifluoromethyl)phenyl]-2,3-dihydropyridazine-4-carboxamide] | 0.0369 | 0.0177
C[C@@H](C[S+](C)[O-])NC(=O)c1cc(-c2ccc(C(F)(F)F)cc2)nn(-c2cnn(C)c2)c1=O (single isomer, unassigned) [Example 24] | 0.00756 | 0.00754
N=S1(=O)C[C@H](O)[C@H](NC(=O)c2cc(-c3ccc(Cl)cc3)nn(-c3cccc(F)c3)c2=O)C1 (single isomer, unassigned) [Example 45, 6-(4-chlorophenyl)-2-(3-fluorophenyl)-N-[(cis)-4-hydroxy-1-imino-1-oxidotetrahydro-1H-1lambda4-thiophen-3-yl]-3-oxo-2,3-dihydropyridazine-4-carboxamide] | 0.756 | 0.0569
O=C(N[C@H]1CS(=O)(=O)C[C@H]1O)c1cc(-c2ccc(Cl)cc2)nn(-c2cccc(F)c2)c1=O (single isomer, unassigned) [Example 57, 6-(4-Chlorophenyl)-2-(3-fluorophenyl)-N-[(cis)-4-hydroxy-1,1-dioxidotetrahydrothiophen-3-yl]-3-oxo-2,3-di hydropyridazine-4-carboxamide] | 0.0171 | 0.00577
C[C@@H](CS(C)(=O)=NC(=O)C(F)(F)F)NC(=O)c1cc(-c2ccc(C(F)(F)F)cc2)nn(-c2cnn(C)c2)c1=O (stereo partly drawn) [Example 41, 2-(1-Methyl-1H-pyrazol-4-yl)-N-{(2S)-1-[S-methyl-N-(trifluoroacetyl)sulfonimidoyl]propan-2-yl}-3-oxo-6-[4-(trifluoromethyl)phenyl]-2,3-dihydropyridazine-4-carboxamide] |  | 0.0392
N=S1(=O)C[C@H](O)[C@H](NC(=O)c2cc(-c3ccc(Cl)cc3)nn(-c3cccc(F)c3)c2=O)C1 (stereo partly drawn) [Example 42, 6-(4-chlorophenyl)-2-(3-fluorophenyl)-N-[(cis)-4-hydroxy-1-imino-1-oxidotetrahydro-1H-1lambda4-thiophen-3-yl]-3-oxo-2,3-dihydropyridazine-4-carboxamide] |  | 0.0349
N=S1(=O)C[C@H](O)[C@H](NC(=O)c2cc(-c3ccc(Cl)cc3)nn(-c3cccc(F)c3)c2=O)C1 (stereo partly drawn) [Example 44, 6-(4-chlorophenyl)-2-(3-fluorophenyl)-N-[(cis)-4-hydroxy-1-imino-1-oxidotetrahydro-1H-1lambda4-thiophen-3-yl]-3-oxo-2,3-dihydropyridazine-4-carboxamide] |  | 0.0993
Cn1cc(-n2nc(-c3ccc(C(F)(F)F)cc3)cc(C(=O)N[C@@H]3CS(=N)(=O)C[C@@H]3O)c2=O)cn1 (stereo partly drawn) [Example 47, N-[(cis)-4-hydroxy-1-imino-1-oxidotetrahydro-1H-1lambda4-thiophen-3-yl]-2-(1-methyl-1H-pyrazol-4-yl)-3-oxo-6-[4-(trifluoromethyl)phenyl]-2,3-dihydropyridazine-4-carboxamide] |  | 0.158
CSC[C@H](C)NC(=O)c1cc(-c2ccc(Cl)cc2)nn(-c2cnn(C)c2)c1=O [Example 48, 6-(4-Chlorophenyl)-2-(1-methyl-1H-pyrazol-4-yl)-N-[(2S)-1-(methylsulfanyl)propan-2-yl]-3-oxo-2,3-dihydropyridazine-4-carboxamide] | 0.0299 | 0.0155
C[C@@H](C[S+](C)[O-])NC(=O)c1cc(-c2ccc(Cl)cc2)nn(-c2cnn(C)c2)c1=O (stereo partly drawn) [Example 49, 6-(4-Chlorophenyl)-2-(1-methyl-1H-pyrazol-4-yl)-N-[(2S)-1-(methylsulfinyl)propan-2-yl]-3-oxo-2,3-dihydropyridazine-4-carboxamide] |  | 0.0264
C[C@@H](CS(C)(=O)=O)NC(=O)c1cc(-c2ccc(Cl)cc2)nn(-c2cnn(C)c2)c1=O [Example 50, 6-(4-Chlorophenyl)-2-(1-methyl-1H-pyrazol-4-yl)-N-[(2S)-1-(methylsulfonyl)propan-2-yl]-3-oxo-2,3-di hydropyridazine-4-carboxamide] | 0.0437 | 0.0305
C[S+]([O-])CCNC(=O)c1cc(-c2ccc(Cl)cc2)nn(-c2cccc(F)c2)c1=O (stereo not drawn) [Example 51, 6-(4-Chlorophenyl)-2-(3-fluorophenyl)-N-[2-(methylsulfinyl)ethyl]-3-oxo-2,3-dihydropyridazine-4-carboxamide] |  | 0.393
CS(=N)(=O)CCNC(=O)c1cc(-c2ccc(Cl)cc2)nn(-c2cccc(F)c2)c1=O (stereo not drawn) [Example 52, 6-(4-Chlorophenyl)-2-(3-fluorophenyl)-N-[2-(S-methylsulfonimidoyl)ethyl]-3-oxo-2,3-dihydropyridazine-4-carboxamide] |  | 0.7
CS(=O)(=O)CCNC(=O)c1cc(-c2ccc(Cl)cc2)nn(-c2cccc(F)c2)c1=O [Example 59, 6-(4-Chlorophenyl)-2-(3-fluorophenyl)-N-[2-(methylsulfonyl)ethyl]-3-oxo-2,3-dihydropyridazine-4-carboxamide] |  | 0.326
